Ends that are not written are not given here. Peptide text beside a SMILES is read from it.
What was measured:
CCL15 = target: T1, CCL15 (Homo sapiens, UniProt Q16663); test: CCL15-induced cell migration assay; format: cell-based; details: HD2 mutant peptides 10 μM, chemokine at EC80
T1 sequence (Q16663 22-113): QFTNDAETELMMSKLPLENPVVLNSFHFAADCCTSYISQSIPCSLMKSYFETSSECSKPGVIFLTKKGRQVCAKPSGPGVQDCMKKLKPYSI
Experimental: FIGS. 24 and 25. Effect of exemplar mutant HD2 peptides on chemotaxis. Box-whisker plots showing the effect of the exemplar mutant HD2 peptides on cell migration induced by indicated human chemokines. All experiments were performed as at least three technical and between one to three biological replicates, and individual data points are indicated. […] Chemokine and cell type names are indicated. HD2SCR is a scrambled version of HD2 used as negative control. All peptides were at 10 μM final concentration and chemokines at EC80 doses. Statistically significant differences (compared to control, coloured blue), using Dunnett's test with correction for multiple comparisons, are indicated by asterisks: ****=P≤0.0001, ***=P≤0.001, **=P≤0.01, *=P≤0.05.
The J:CXCR1 cell line was generated by transfecting Jurkat cells by electroporation with PvuI-linearized plasmid D1398 and selecting with blasticidin (Sigma-Aldrich, Cat #203350, […]). […] J:CXCR1 cells were cultured in RPMI-1640 media (Gibco), supplemented with 10% FBS and 5 mM L-Glutamine with blasticidin. For J:CXCR1 migration assays, 300,000 cells/well were added to the top chamber of a 3 μm Transwell insert (Corning) in 50 μL of migration media (RPMI-1640, 0.5% FBS, 4 mM L-Glutamine, 0.05% DMSO). […] Cell counts were determined by Attune NxT Flow Cytometer Plate Reader (ThermoFisher), based on cell size parameters FSC-H/SSC-H. Experiments were performed in 3 technical and 3 biological replicates. […] Statistical significances between control experimental groups was evaluated using Dunnett's test. […] EC80 was calculated by fitting a chemokine dose-response curve with 3 parameters (fixing the top to 100%). IC50 was calculated by fitting an inhibitor response curve with 4 parameters.
Migration assays using THP1, activated T-cell (ATC) and J:CXCR1 (Jurkat cells stably transfected with CXCR1 receptor) were performed as described previously. […] EC80 was calculated by fitting a chemokine dose-response curve with 3 parameters (fixing the top to 100%). IC50 was calculated by fitting an inhibitor response curve with 4 parameters. […]

CC and CXC chemokines = test: Chemokine-induced cell migration assays, pooled over chemokines (meta-analysis); format: cell-based, human; details: single HD2 mutations; nine CC and six CXC chemokines
Experimental: FIG. 16. Effect of HD2 alanine mutations on chemotaxis. […] All experiments were performed as three technical and three biological replicates, and individual data points are indicated, and coloured by the chemokine used. Statistically significant differences (compared to control, coloured blue), using Dunnett's test with correction for multiple comparisons, are indicated by asterisks: ****=P≤0.0001, ***=P≤0.001, **=P≤0.01, *=P≤[…] observations per group (three technical and three biological replicates for each chemokine). FIG. 16B, Faceted plots of change in median normalised cell count between alanine mutant and wild-type HD2 peptide obtained in cell migration assays (Y-axis, Δmedian normalised cell count) versus alanine mutated residue (X-axis). Chemokines used for each experiment are indicated in the strip to the right of each plot. Statistically significant differences compared to parental HD2 are shown as red dots. […] Scatterplot of Δmedian normalised cell count (Y-axis, obtained in cell migration assays) versus Δlog 2 E (obtained in phage-display experiments) for peptide:chemokine pairs. Individual data points indicate peptide chemokine pairs for which both cell migration and Δlog 2 E were available. Linear regression plot with 95% confidence interval, Spearman correlation coefficient (R) and statistical significance (p) are shown.
FIG. 19. […] All experiments were performed as at least three technical and three biological replicates, and individual data points are indicated, and coloured by the chemokine used, for all chemokines studied (n=16 chemokines). Statistically significant differences (compared to control, coloured blue), using Dunnett's test with correction for multiple comparisons, are indicated by asterisks: ****=P≤0.0001, ***=P≤0.001, **=P≤0.01, *=P≤0.05.
Briefly, cell migration assays use THP1 cells (human monocyte) and primary human buffy coat white cells (consisting of neutrophil granulocytes, monocytes, and lymphocytes), and activated T-cells. THP1 cells and primary monocytes respond to CCL2, CCL3, CCL5, CCL8 and CXCL4, granulocytes to CXCL1 and CXCL8, activated T-cells to CXCL9/10/11. Assays are performed in 96-well Boyden chambers, and migrated cells counted and characterized using and ATTUNE Flow Cytometer as described. Triplicate assays are performed at the EC80 dose of each chemokine at 10 μM peptide concentration.
The J:CXCR1 cell line was generated by transfecting Jurkat cells by electroporation with PvuI-linearized plasmid D1398 and selecting with blasticidin (Sigma-Aldrich, Cat #203350, […]). […] J:CXCR1 cells were cultured in RPMI-1640 media (Gibco), supplemented with 10% FBS and 5 mM L-Glutamine with blasticidin. For J:CXCR1 migration assays, 300,000 cells/well were added to the top chamber of a 3 μm Transwell insert (Corning) in 50 μL of migration media (RPMI-1640, 0.5% FBS, 4 mM L-Glutamine, 0.05% DMSO). The bottom chamber contained 150 μL of chemokine, with or without peptide. Cells were migrated at 37° C. in 5% CO2 for 4 hours. The plate was incubated on a shaking platform for 10 minutes, 800 rpm, at 37° C., and 150 μL from the bottom of the plate transferred into a U-bottom plate containing 50 μL of migration media.

Compound	chemotaxis compared with the parental HD2 peptide (CCL15)	chemotaxis inhibition compared with HD2, meta-analysis (CC and CXC chemokines)
CC(C)C[C@H](NC(=O)[C@@H]1CCCN1C(=O)[C@H](C)NC(=O)[C@H](Cc1ccc(O)cc1)NC(=O)[C@H](C)NC(=O)[C@@H](NC(=O)[C@H](Cc1ccc(O)cc1)NC(=O)[C@H](CC(=O)O)NC(=O)[C@H](CC(=O)O)NC(=O)[C@H](CCC(=O)O)NC(=O)[C@@H](N)CCC(=O)O)[C@@H](C)O)C(=O)N[C@H](C(=O)N[C@@H](CS)C(=O)N[C@@H](Cc1ccc(O)cc1)C(=O)N[C@@H](Cc1ccccc1)C(=O)N[C@@H](CS)C(N)=O)[C@@H](C)O [HD2_C16, EEDDYTAYAPLTCYFC] (H-EEDDYTAYAPLTCYFC-NH2; N-terminus assumed)	significant reduction in chemotaxis	significant improvement over HD2
EEDDWTAYAPLTCYFT-NH2 [HD2_W5, EEDDWTAYAPLTCYFT]	–	significant improvement over HD2
EEDDYTAYWPLTCYFT [A9W]	significant reduction in chemotaxis	significant improvement over HD2
EEDDYWAYAPLTCYFT [HD2_W6]	significant reduction in chemotaxis	significant improvement over HD2
